From patent US10472341B2, “Bicyclic tetrahydrothiazepine derivatives useful for the treatment of neoplastic and/or infectious diseases” (APEIRON BIOLOGICS AG, priority 2015, dated 2019)
Where a name gives a salt, the structure may show the parent alone.

System: TCR-mediated activation of CD4 and CD8 cells
Test: Anti-CD3 PD model in mice: CD69 on splenic T-cells, plasma cytokines
Assay type: in vivo, mouse
Details: for CD4+ / CD8+ / CD69+ / CD69+ in CD4+ / CD69+ in CD8+: spleen flowcytometry; for CD4+ / CD8+ / CD69+ / CD69+ in CD4+ / CD69+ in CD8+ / IFN-γ / IL-2 / IL-6 / IL-10 / TNF-α: t=4.0 h; for IFN-γ / IL-2 / IL-6 / IL-10 / TNF-α: terminal plasma
Description: Detection of antigen-specific T cell activation and proliferation in vivo is technically challenging since it requires the development and validation of research reagents to detect low-frequency T cells specific for a cognate antigen and also the establishment of specific measurement procedure for following cellular activation and/or proliferation in blood or secondary lymphoid organs. As a surrogate model for the determination of polyclonal T-cell activation in mice, a pharmacological system was designed and employed where adult […] mice were injected with anti-CD3 antibody to elicit TCR triggering and responses of a broad population of peripheral T-cells. To quantitatively determine T-cell responses, systemic IL-2, TNF-alpha and IFN-gamma levels were measured in blood serum as well as the expression of the early activation marker CD69 on splenic CD4 or CD8 T-cells […] after treatment.
It was investigated whether the oral application of compound affected the low-level of activation of a major subset of splenic T-cells by injection of anti-CD3 antibody as exemplified by increased serum levels of IL-2, IFN-gamma and TNF-alpha vis-à-vis untreated mice as well as an increase of CD69-expressing splenic T-cells from 2-10% to 15-20%.
[…] Compound example 1 was dosed twice orally as suspension (0.5% methylcellulose in water) at t=−1.0 h and t=1.0 h. • 3. Mice were terminated at t=4.0 h and their spleens and plasma harvested for flow cytometry and cytokine analysis respectively. • 4. Cytokine concentrations in terminal plasma samples were determined with MSD kits according to manufacturer's instructions.

For N[C@H]1CS(=O)(=O)c2cc(F)c(C(=O)NC3CC3(F)F)cc2N(Cc2ccc(Cl)cc2)C1=O (stereo partly drawn) [Example 1, (3R)-3-amino-5-[(4-chlorophenyl)methyl]-N-(2,2-difluorocyclopropyl)-8-fluoro-1,1,4-trioxo-2,3,4,5-tetrahydro-1λ^6,5-benzothiazepine-7-carboxamide hydrochloride], the “TCR-mediated activation of CD4 and CD8 cells in vivo” value (mice, anti-CD3 i.p., compound oral, five hours) was “is able to substantially enhance TCR-mediated activation of CD4 and CD8 cells in vivo”, the “CD4+” value (25 mg/kg dosed twice orally) was 22.95% and the “CD8+” value (25 mg/kg dosed twice orally) was 16.33%. For the same compound, the “CD69+” value (25 mg/kg dosed twice orally) was 12.65%, the “CD69+ in CD4+” value (25 mg/kg dosed twice orally) was 26.75% and the “CD69+ in CD8+” value (25 mg/kg dosed twice orally) was 32.40%. The “CD4+” value (50 mg/kg dosed twice orally) was 22.86%, the “CD8+” value (50 mg/kg dosed twice orally) was 16.42% and the “CD69+” value (50 mg/kg dosed twice orally) was 17.06%. For the same compound, the “CD69+ in CD4+” value (50 mg/kg dosed twice orally) was 32.14%, the “CD69+ in CD8+” value (50 mg/kg dosed twice orally) was 46.44% and the “CD4+” value (100 mg/kg dosed twice orally) was 23.18%. For the same compound, the “CD8+” value (100 mg/kg dosed twice orally) was 16.70%, the “CD69+” value (100 mg/kg dosed twice orally) was 28.58% and the “CD69+ in CD4+” value (100 mg/kg dosed twice orally) was 47.50%. The “CD69+ in CD8+” value (100 mg/kg dosed twice orally) was 63.96%, the IFN-γ (25 mg/kg dosed twice orally) was 5.26 pg/mL and the IL-2 (25 mg/kg dosed twice orally) was 391.33 pg/mL. It also gave an IL-6 (25 mg/kg dosed twice orally) of 461.65 pg/mL, an IL-10 (25 mg/kg dosed twice orally) of 39.88 pg/mL and a TNF-α (25 mg/kg dosed twice orally) of 46.78 pg/mL. It also gave an IFN-γ (50 mg/kg dosed twice orally) of 12.99 pg/mL, an IL-2 (50 mg/kg dosed twice orally) of 849.50 pg/mL and an IL-6 (50 mg/kg dosed twice orally) of 1186.80 pg/mL. For the same compound, the IL-10 (50 mg/kg dosed twice orally) was 50.88 pg/mL, the TNF-α (50 mg/kg dosed twice orally) was 97.78 pg/mL and the IFN-γ (100 mg/kg dosed twice orally) was 50.77 pg/mL. It also gave an IL-2 (100 mg/kg dosed twice orally) of 1413.82 pg/mL, an IL-6 (100 mg/kg dosed twice orally) of 2185.05 pg/mL and an IL-10 (100 mg/kg dosed twice orally) of 68.38 pg/mL. It also gave a TNF-α (100 mg/kg dosed twice orally) of 170.92 pg/mL.
